According to PubChem BioAssay AID328 (DTP/NCI, 2004):
Values joined by “and” are separate entries in the source; they are usually repeats but may differ in a detail not shown here. Equal entries are not always repeated. Inconclusive results and toxic doses are left out.

System: BDF1 mice, P388 leukemia ip, median survival T/C
Experiment: NCI In Vivo Anticancer Drug Screen. Data for tumor model P388 Leukemia (intraperitoneal) in B6D2F1 (BDF1) mice
Details: endpoint: median survival time, higher = longer survival
Summary of the method: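 Steps: implant the tumour, treat one group with compound and another with vehicle, record survival, then divide treated by control.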

`COc1cc(NS(C)(=O)=O)ccc1Nc1c2ccccc2nc2ccccc12` was tested, and the T/C (dose: 0.25 mg/kg/injection, schedule: Q01DX009 (ip), vehicle: other) was 154 % of control, the T/C (dose: 0.25 mg/kg/injection, schedule: Q01DX009 (ip), vehicle: saline) was 150 % of control and the T/C (dose: 0.5 mg/kg/injection, schedule: Q01DX009 (ip), vehicle: other) was 161 % of control and 175 % of control. For the same compound, the T/C (dose: 0.57 mg/kg/injection, schedule: Q01DX009 (ip), vehicle: Klucel (hydroxypropylcellulose) (HPC)) was 210 % of control, the T/C (dose: 0.8 mg/kg/injection, schedule: Q01DX005 (ip), vehicle: other) was 182 % of control and the T/C (dose: 0.8 mg/kg/injection, schedule: Q01DX005 (iv), vehicle: other) was 104 % of control and 109 % of control. For the same compound, the T/C (dose: 0.8 mg/kg/injection, schedule: Q04DX003 (iv), vehicle: other) was 108 % of control, the T/C (dose: 0.85 mg/kg/injection, schedule: Q01DX009 (ip), vehicle: Klucel (hydroxypropylcellulose) (HPC)) was 195 % of control and the T/C (dose: 1.0 mg/kg/injection, schedule: Q01DX009 (ip), vehicle: other) was 175 % of control and 195 % of control. For the same compound, the T/C (dose: 1.3 mg/kg/injection, schedule: Q01DX009 (ip), vehicle: Klucel (hydroxypropylcellulose) (HPC)) was 173 % of control, the T/C (dose: 1.56 mg/kg/injection, schedule: Q01DX009 (ip), vehicle: Klucel (hydroxypropylcellulose) (HPC)) was 166 % of control and the T/C (dose: 1.6 mg/kg/injection, schedule: Q01DX005 (ip), vehicle: other) was 202 % of control. The T/C (dose: 1.6 mg/kg/injection, schedule: Q01DX005 (iv), vehicle: other) was 115 % of control and 120 % of control, the T/C (dose: 1.6 mg/kg/injection, schedule: Q04DX003 (iv), vehicle: other) was 107 % of control and the T/C (dose: 2.0 mg/kg/injection, schedule: Q01DX009 (ip), vehicle: Klucel (hydroxypropylcellulose) (HPC)) was 169 % of control. The T/C (dose: 2.0 mg/kg/injection, schedule: Q01DX009 (ip), vehicle: other) was 193 % of control and 216 % of control, the T/C (dose: 3.3 mg/kg/injection, schedule: Q01DX005 (ip), vehicle: other) was 220 % of control and the T/C (dose: 3.3 mg/kg/injection, schedule: Q04DX003 (iv), vehicle: other) was 122 % of control. The T/C (dose: 3.6 mg/kg/injection, schedule: Q04DX003 (ip), vehicle: clinical formulation) was 192 % of control, the T/C (dose: 3.6 mg/kg/injection, schedule: Q04DX003 (ip), vehicle: other) was 215 % of control and the T/C (dose: 4.12 mg/kg/injection, schedule: Q01DX009 (ip), vehicle: Klucel (hydroxypropylcellulose) (HPC)) was 227 % of control and 204 % of control. For the same compound, the T/C (dose: 5.4 mg/kg/injection, schedule: Q04DX003 (ip), vehicle: clinical formulation) was 210 % of control, the T/C (dose: 6.0 mg/kg/injection, schedule: Q04DX003 (ip), vehicle: clinical formulation) was 211 % of control and the T/C (dose: 6.0 mg/kg/injection, schedule: Q04DX003 (ip), vehicle: other) was 169 % of control. For the same compound, the T/C (dose: 6.25 mg/kg/injection, schedule: Q01DX009 (ip), vehicle: Klucel (hydroxypropylcellulose) (HPC)) was 236 % of control and 259 % of control and 272 % of control, the T/C (dose: 6.5 mg/kg/injection, schedule: Q04DX003 (iv), vehicle: other) was 116 % of control and the T/C (dose: 6.6 mg/kg/injection, schedule: Q04DX003 (ip), vehicle: other) was 236 % of control. The T/C (dose: 6.6 mg/kg/injection, schedule: Q08DX002 (ip), vehicle: other) was 191 % of control, the T/C (dose: 6.6 mg/kg/injection, schedule: Q08DX002 (iv), vehicle: other) was 118 % of control and the T/C (dose: 7.0 mg/kg/injection, schedule: Q04DX003 (ip), vehicle: lactic acid) was 225 % of control and 263 % of control and 272 % of control. The T/C (dose: 7.0 mg/kg/injection, schedule: Q04DX003 (ip), vehicle: saline with Tween-80) was 240 % of control, the T/C (dose: 9.0 mg/kg/injection, schedule: Q04DX003 (ip), vehicle: clinical formulation) was 215 % of control and the T/C (dose: 9.37 mg/kg/injection, schedule: Q01DX009 (ip), vehicle: Klucel (hydroxypropylcellulose) (HPC)) was 268 % of control and 104 % of control. The T/C (dose: 10.0 mg/kg/injection, schedule: Q04DX003 (ip), vehicle: clinical formulation) was 248 % of control, the T/C (dose: 10.0 mg/kg/injection, schedule: Q04DX003 (ip), vehicle: other) was 225 % of control and 272 % of control and the T/C (dose: 10.0 mg/kg/injection, schedule: Q08DX002 (ip), vehicle: other) was 193 % of control. The T/C (dose: 11.0 mg/kg/injection, schedule: Q04DX003 (ip), vehicle: lactic acid) was 291 % of control and 354 % of control and 541 % of control, the T/C (dose: 11.0 mg/kg/injection, schedule: Q04DX003 (ip), vehicle: saline with Tween-80) was 295 % of control and the T/C (dose: 12.5 mg/kg/injection, schedule: Q01DX009 (ip), vehicle: Klucel (hydroxypropylcellulose) (HPC)) was 260 % of control. The T/C (dose: 15.0 mg/kg/injection, schedule: Q04DX003 (ip), vehicle: other) was 111 % of control, the T/C (dose: 15.0 mg/kg/injection, schedule: Q04DX003 (iv), vehicle: other) was 157 % of control and the T/C (dose: 15.0 mg/kg/injection, schedule: Q08DX002 (ip), vehicle: other) was 245 % of control. For the same compound, the T/C (dose: 16.0 mg/kg/injection, schedule: Q04DX003 (ip), vehicle: lactic acid) was 190 % of control, the T/C (dose: 16.0 mg/kg/injection, schedule: Q04DX003 (ip), vehicle: saline with Tween-80) was 377 % of control and the T/C (dose: 16.7 mg/kg/injection, schedule: Q04DX003 (ip), vehicle: clinical formulation) was 118 % of control. For the same compound, the T/C (dose: 22.6 mg/kg/injection, schedule: Q04DX003 (iv), vehicle: other) was 170 % of control, the T/C (dose: 22.6 mg/kg/injection, schedule: Q08DX002 (iv), vehicle: other) was 190 % of control and the T/C (dose: 26.0 mg/kg/injection, schedule: Q04DX003 (iv), vehicle: other) was 203 % of control. The T/C (dose: 34.0 mg/kg/injection, schedule: Q04DX003 (iv), vehicle: other) was 200 % of control and the T/C (dose: 34.0 mg/kg/injection, schedule: Q08DX002 (iv), vehicle: other) was 200 % of control.
